Source: paper PMC2528936, “Snake Cathelicidin from Bungarus fasciatus Is a Potent Peptide Antibiotics” (PLoS ONE, 2008)
Values after ≈ are worked out from the molar mass of the structure shown. Like-named read-outs stand apart in the source and are kept apart here. Values belong to the compound of their own block, whether it stands above or below them. Where a SMILES comes first, the peptide text is derived from it. Bridges are numbered along the chain shown (N, C = ends).

Experiments:
[1] = tested on: Bacillus subtilis; assay: microbe, parasite or virus in culture
Procedure: (§1) Antimicrobial activities of cathelicidin-BF and cathelicidin-BF15 ([…]) were tested according to our previous methods [39]–[42]. […] The details were provided in the Materials and Methods S1.
(§2) Standard and clinically isolated microorganism strains were used for antimicrobial assays. Bacteria were first grown in LB (Luria-Bertani) broth to an OD600 nm of 0.8. A 10 µl aliquot of the bacteria was then taken and added to 8 ml of fresh LB broth with 0.7% agar and poured over a 90 mm Petri dish containing 25 ml of 1.5% agar in LB broth. After the top agar hardened, a 20 µl aliquot of the test sample filtered on a 0.22 µm Millipore filter was dropped onto the surface of the top agar and completely dried before being incubated overnight at 37 °C. If the sample examined had antimicrobial activity, a clear zone would be formed on the surface of the top agar representing inhibition of bacterial growth. Minimal inhibitory concentration (MIC) was determined in liquid LB medium by incubating the bacteria in LB broth with variable amounts of the sample tested. The MIC at which no visible growth occurred was recorded. In the assays of anti-fungi activity, for strains of Aspergillus terreus, A. niculans, and Chaetomium globosum, the fungal spore concentration was first counted under a microscope. The fungi with an initial concentration of 10^5 spores/ml were cultured with variable amounts of the sample tested in yeast extract-peptone-dextrose broth.

[2] = tested on: Candida albicans ATCC2002; assay: microbe, parasite or virus in culture
Procedure: as §1, §2

[3] = tested on: Escherichia coliATCC25922; assay: microbe, parasite or virus in culture
Procedure: as §1, §2

[4] = tested on: Pseudomonas aeruginosa ATCC27853; assay: microbe, parasite or virus in culture; settings: ATCC27853
Procedure: as §1, §2

[5] = tested on: Staphylococcus aureus ATCC2592; assay: microbe, parasite or virus in culture; settings: ATCC2592
Procedure: as §1, §2

[6] = tested on: E. coli 08A866; assay type: cell-based, Escherichia coli; settings: for Amount of bacteria co-cultured with sample: Table 4, LB, 35 °C
Procedure: The details were provided in the Materials and Methods S1.
Fresh overnight colonies were added to a total of 20 ml LB, and incubated on a 35 °C water bath. After one hour of incubation, 1 ml broth from each flask was replaced with the test solution. The colony counting was performed at different time after addition of the test solutions as described by Mygind et al.

[7] = tested on: E. coli 08A866(IS, DR); settings: clinically isolated strain, drug resistance for ampicillin and benzylpenicillin; liquid LB broth; mean of three independent experiments in duplicates; ND = no detectable activity
Procedure: as §1, §2

[8] = tested on: K. pneumoniae standard strain; assay: MIC determination, standard strain; assay type: cell-based; settings: Klebsiella pneumoniae
Procedure: as §1
as §2, with “The fungi with an initial concentration of 10^5 spores/ml were cultured with variable amounts of the sample tested in yeast extract-peptone-dextrose broth.” left out

[9] = tested on: Bacillus pumilus; assay: microbe, parasite or virus in culture; settings: Bacillus pumilus
Procedure: as §1, §2

[10] = tested on: Bacillus cereus; assay: microbe, parasite or virus in culture; settings: Bacillus cereus
Procedure: as §1, §2

[11] = tested on: Acinetobacter calcoaceticus; assay: microbe, parasite or virus in culture; settings: Acinetobacter calcoaceticus
Procedure: as §1, §2

[12] = tested on: Aspergillus terreus GIM3.34; settings: saprophytic fungus; 10^5 spores/ml, yeast extract-peptone-dextrose broth; mean of three independent experiments in duplicates; ND = no detectable activity
Procedure: as §1, §2

[13] = tested on: Chaetomium globosum; settings: saprophytic fungus; 10^5 spores/ml, yeast extract-peptone-dextrose broth; mean of three independent experiments in duplicates; ND = no detectable activity
Procedure: as §1, §2

[14] = tested on: Aspergillus niculans; settings: saprophytic fungus; 10^5 spores/ml, yeast extract-peptone-dextrose broth; mean of three independent experiments in duplicates; ND = no detectable activity
Procedure: as §1, §2

Structure (SMILES): CC[C@H](C)[C@H](NC(=O)[C@H](C)NC(=O)[C@@H](NC(=O)[C@@H]1CCCN1C(=O)[C@H](CC(C)C)NC(=O)[C@@H](NC(=O)[C@H](CO)NC(=O)[C@@H](NC(=O)[C@H](C)NC(=O)[C@@H](NC(=O)[C@H](CCCCN)NC(=O)[C@H](CC(C)C)NC(=O)[C@@H](NC(=O)[C@@H]1CCCN1C(=O)CNC(=O)[C@@H](NC(=O)[C@@H](N)Cc1ccccc1)[C@@H](C)CC)C(C)C)[C@@H](C)CC)[C@@H](C)O)[C@@H](C)CC)[C@@H](C)O)C(=O)N[C@H]1CSSC[C@@H](C(=O)O)NC(=O)[C@H](CCCCN)NC(=O)[C@H](CCCCN)NC(=O)[C@H](Cc2ccccc2)NC(=O)[C@H]([C@@H](C)CC)NC(=O)[C@H](CCCCN)NC1=O [HDW] (H-FIGPVLKIATSILPTAICKIFKKC-OH; disulfide 18-24 (inferred); N-terminus and C-terminus assumed)
MIC [1]: 2.3 µg/mL (≈ 0.883 µM)
MIC [2]: 2.3 µg/mL (≈ 0.883 µM)
MIC ([3]; ATCC25922): 18.7 µg/mL (≈ 7.18 µM)
MIC [4]: 37.5 µg/mL (≈ 14.4 µM)
MIC [5]: 1.2 µg/mL (≈ 0.461 µM)
Amount of bacteria co-cultured with sample ([6]; sample at 1 times MIC, time 0.1 min): 49 CFU
Amount of bacteria co-cultured with sample ([6]; sample at 1 times MIC, time 1 min): 14.7 CFU
Amount of bacteria co-cultured with sample ([6]; sample at 1 times MIC, time 10 min): 0 CFU
Amount of bacteria co-cultured with sample ([6]; sample at 1 times MIC, time 30 min): 0 CFU
Amount of bacteria co-cultured with sample ([6]; sample at 10 times MIC, time 0.1 min): 38 CFU
Amount of bacteria co-cultured with sample ([6]; sample at 10 times MIC, time 1 min): 3.7 CFU
Amount of bacteria co-cultured with sample ([6]; sample at 10 times MIC, time 10 min): 0 CFU
Amount of bacteria co-cultured with sample ([6]; sample at 10 times MIC, time 30 min): 0 CFU
time to clean E. coli ([6]; killing kinetics during 30 min (Table 4), comparison of cathelicidin-BF and HDW): several minutes
MIC [7]: 18.7 µg/mL (≈ 7.18 µM)

MIC [8]: 150 µg/mL (≈ 429 µM)
MIC ([1]; Bacillus subtilis): 0.02 µg/mL (≈ 0.0572 µM)
MIC ([2]; Candida albicans): 0.3 µg/mL (≈ 0.859 µM)
MIC ([3]; Escherichia, COLIATCC25922): 18.7 µg/mL (≈ 53.5 µM)
MIC [9]: 0.15 µg/mL (≈ 0.429 µM)
MIC ([4]; Pseudomonas aeruginosa): 150 µg/mL (≈ 429 µM)
MIC ([5]; Staphylococcus aureus): 0.15 µg/mL (≈ 0.429 µM)
MIC [10]: 150 µg/mL (≈ 429 µM)
MIC [11]: 75 µg/mL (≈ 215 µM)
MIC [12]: no effect
MIC [13]: no effect
MIC [14]: no effect
Structure (SMILES): CC1(C)S[C@@H]2[C@H](NC(=O)[C@H](N)c3ccccc3)C(=O)N2[C@H]1C(=O)O [ampicillin]
